Reference: US7049336B2, “Method for diagnosing neuronal diseases and for treating primary hemostasis deficiency” (Max-Delbruck-Centrum fur Molekularc Medizin, priority 2000, dated 2006)

Test system: TPH(−/−)-mice
Test: Bleeding time (disturbed hemostasis) in TPH(−/−)-mice after intracardial injection
Format: in vivo, mouse
Settings: for Effect on prolonged bleeding time phenotype: TPH(−/−)-mice
From the text: FIG. 3. Disturbed hemostasis in TPH(−/−)-mice. • A. Prolonged bleeding times of TPH(−/−)-animals. […] The 5-HT-amounts applied result in 1/10 and the ten-fold of the normal blood concentrations. • C. […] The effect is specific for the TPH(−/−)-mice, whereas control-animals are not affected.

Row | Compound | Effect on prolonged bleeding time phenotype (intracardial 5-HT-injection, amounts result in 1/10 and the ten-fold of the normal blood concentrations) | Effect on prolonged bleeding time phenotype (intracardial von Willebrand-factor injection) | Effect on bleeding time in control-animals (control-animals, intracardial von Willebrand-factor injection)
1 | NCCc1c[nH]c2ccc(O)cc12 [5-HT, serotonin, reference compound] | Healing of the phenotype | – | –
2 | von Willebrand-factor: commercially available von Willebrand-factor (vWF) | – | Healing of the phenotype | not affected
